One data set relates to CaCl2-Arrhythmie. Nature of the data set: CaCl2-induced arrhythmia in the rat (antifibrillatory effect). In kind it is in vivo, Ratte. The conditions noted are these: for ED50: read-out: CaCl2-Arrhythmie Ratte, ED50.
Data set [1] relates to Ratte. Nature of the data set: in vivo. In kind it is in vivo.
Another data set in a line: in vivo. In kind it is in vivo. The conditions noted are these: in vivo; for LD50: intravenous use according to b33, values in brackets = confidence range, read-out: akute Toxizität Ratte, LD50; for selectivity ratio: therapeutic breadth, read-out: Q LD50/ED50.
The test system of data set [2] is Ratte. The settings on record: rat, values in brackets = confidence range, cited from earlier work.
Where [3] appears, read: rat, antifibrillatory effect, values in brackets = confidence range.
Where [4] appears, read: rat LD50 / rat CaCl2-arrhythmia ED50.

Structures can show the parent of a compound that is named as a salt. Where two headings read alike, the source gives them in different places. Marks after values point to notes of the source that are not given here.

As for “5-(6-Diethylamino-hexanoyl)-5,10-dihydro-10-methyl-11H-dibenzo/b,e//1,4/diazepin-11-on.HCl.0,5 H₂O [Beispiel 4]”, the “CaCl2-Arrhythmie Ratte, ED50” value with CaCl2-Arrhythmie (setting [3]) is recorded as 0,033 (0,011 - 0,10) mg/kg. Also, the “akute Toxizität Ratte, LD50” value in the data set on Ratte [1] (rat, intravenous use according to b33, values in brackets = confidence range) was 78 (73 - 84) mg/kg. For the same molecule, the “Q LD50/ED50” value in the data set with Ratte [1] (therapeutic breadth, rat LD50 / rat CaCl2-arrhythmia ED50) is reported as 2364.
The ED50 is the dose at which the effect has come halfway, by size or by number of responders. One may read the LD50 as the dose at which mortality reaches 50%. Turning to `CN1C(=O)c2ccccc2N(C(=O)CCCCCNC2CCCCC2)c2ccc(Cl)cc21` [Beispiel 8, 8-Chlor-5-(6-cyclohexylamino-hexanoyl)-5,10-dihydro-10-methyl-11H-dibenzo/b,e//1,4/diazepin-11-on.HCl], in the data set on CaCl2-Arrhythmie (setting [3]), the ED50 turned out to be 0.33 mg/kg. The LD50 in “in vivo” (rat) worked out at 35 mg/kg. Moreover, in the data set “in vivo” (setting [4]), the selectivity ratio amounted to 106.
Regarding `CCN(CC)CC(=O)Nc1c(C)cccc1C` [Lidokain], in the data set on CaCl2-Arrhythmie (setting [3]), the ED50 turned out to be 3.1 mg/kg.
Take `CN1C(=O)c2ccccc2N(C(=O)CCCCCNC2CCCCC2)c2ccccc21` [Beispiel 7, 5-(6-Cyclohexylamino-hexanoyl)-5,10-dihydro-10-methyl-11H-dibenzo/b,e//1,4/diazepin-11-on.HCl]: in the data set with CaCl2-Arrhythmie (setting [3]), the ED50 worked out at 0.025 mg/kg. Further, in “in vivo” (rat), the LD50 worked out at 32 mg/kg. For the same molecule, the selectivity ratio in the data set “in vivo” (setting [4]) was determined as 1280.
For the molecule `C=CC1CN2CCC1CC2C(O)c1ccnc2ccc(OC)cc12` (stereo not drawn) [Chinidin], the ED50 in the data set on CaCl2-Arrhythmie (setting [3]) came to 2.7 mg/kg. In addition, in “in vivo” (rat), the LD50 worked out at 48 mg/kg. Further, the selectivity ratio in “in vivo” (rat, rat LD50 / rat CaCl2-arrhythmia ED50) came to 18.
For `CC(C)N(CCC(C(N)=O)(c1ccccc1)c1ccccn1)C(C)C` (racemic) [Disopyramid], the ED50 with CaCl2-Arrhythmie (Rattus norvegicus) was 1.3 mg/kg. Besides, the selectivity ratio in “in vivo” (rat, worked out with the cited LD50 of m (male) rats) came out at 55; in “in vivo” (rat, worked out with the cited LD50 of w (female) rats), 50. The “akute Toxizität Ratte, LD50” value in the data set with Ratte [2] (m (male), literature value from the Palpitin (R) brochure, Gedeon Richter) is on record as “m 72 (60 - 80) * mg/kg”; in the data set with Ratte [2] (w (female), literature value (footnote mark printed only on the m line)) it was “w 66 (50 - 110) mg/kg”.

Source of the values: patent EP0515796A1, “5-Aminoacyl-5,10-dihydro-11H-dibenzo(b,e)(1,4)diazepin-11-ones, processes for their preparation, and their use as medicaments” (ARZNEIMITTELWERK DRESDEN GmbH, priority 1991, dated 1992).
